Reference: ChEMBL document CHEMBL1201862, “PubChem BioAssay data set” (2004)
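1) Cells in 96-well plates. 2) Compound, 48 h, 5 concentrations. 3) Linear interpolation between surrounding doses. 4) Unreached endpoint = highest concentration. Here, GI50 denotes the concentration required for 50% inhibition of growth.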 Calls of active or inactive are those of the source. Cut-off read from the data, not from the text of the source: active = GI50 up to about 1.1 µM and inactive = higher.

How the values were obtained:
Assay in all cases: DTP human tumour cell line panel, 48 h
786-0 = tested on: 786-0
A498 = tested on: A498
A549 = tested on: A549
ACHN = tested on: ACHN
CAKI-1 = tested on: CAKI-1
CCRF-CEM = tested on: CCRF-CEM
COLO 205 = tested on: COLO 205
DLD-1 = tested on: DLD-1
DMS-114 = tested on: DMS-114
DMS-273 = tested on: DMS-273
EKVX = tested on: EKVX
HCC 2998 = tested on: HCC 2998
HCT-116 = tested on: HCT-116
HCT-15 = tested on: HCT-15
HL-60 = tested on: HL-60
HOP-18 = tested on: HOP-18
HOP-62 = tested on: HOP-62
HOP-92 = tested on: HOP-92
HT-29 = tested on: HT-29
IGROV-1 = tested on: IGROV-1
K562 = tested on: K562
KM-20L2 = tested on: KM-20L2
KM12 = tested on: KM12
LOX IMVI = tested on: LOX IMVI
LXFL 529 = tested on: LXFL 529
M14 = tested on: M14
M19-MEL = tested on: M19-MEL
MOLT-4 = tested on: MOLT-4
Malme-3M = tested on: Malme-3M
NCI-H226 = tested on: NCI-H226
NCI-H23 = tested on: NCI-H23
NCI-H460 = tested on: NCI-H460
NCI-H522 = tested on: NCI-H522
OVCAR-3 = tested on: OVCAR-3
OVCAR-4 = tested on: OVCAR-4
OVCAR-5 = tested on: OVCAR-5
OVCAR-8 = tested on: OVCAR-8
RPMI-8226 = tested on: RPMI-8226
SF-268 = tested on: SF-268
SF-295 = tested on: SF-295
SF-539 = tested on: SF-539
SK-MEL-28 = tested on: SK-MEL-28
SK-MEL-2 = tested on: SK-MEL-2
SK-OV-3 = tested on: SK-OV-3
SN12C = tested on: SN12C
SNB-19 = tested on: SNB-19
SNB-75 = tested on: SNB-75
SNB-78 = tested on: SNB-78
SW-620 = tested on: SW-620
TK-10 = tested on: TK-10
U-251 = tested on: U-251
UACC-257 = tested on: UACC-257
UACC-62 = tested on: UACC-62
UO-31 = tested on: UO-31
BT-549 = tested on: BT-549
DU-145 = tested on: DU-145
Hs-578T = tested on: Hs-578T
MCF7 = tested on: MCF7
MDA-MB-231 = tested on: MDA-MB-231
MDA-MB-435 = tested on: MDA-MB-435
MDA-N = tested on: MDA-N
NCI/ADR-RES = tested on: NCI/ADR-RES
PC-3 = tested on: PC-3
RXF 393 = tested on: RXF 393
SK-MEL-5 = tested on: SK-MEL-5
SR = tested on: SR
T47D = tested on: T47D

Measured: GI50

CC(C)(C)C1C=C(Sc2ccccc2)C(=O)O1 (stereo not given)
inactive: 786-0 68.9 µM | A498 41.9 µM | A549 33.3 µM | ACHN 32.1 µM | CAKI-1 45.6 µM | CCRF-CEM 37.4 µM | COLO 205 26.9 µM | DLD-1 42.5 µM | DMS-114 32.8 µM | DMS-273 40.7 µM | EKVX 47 µM | HCC 2998 58.9 µM | HCT-116 40.1 µM | HL-60 24.9 µM | HOP-18 75.9 µM | HOP-62 45.4 µM | HOP-92 29.2 µM | HT-29 49.8 µM | IGROV-1 48.9 µM | K562 49.3 µM | KM-20L2 39.1 µM | KM12 40.6 µM | LOX IMVI 37.6 µM | LXFL 529 34.8 µM | M14 62.1 µM | M19-MEL 48.9 µM | MOLT-4 30.3 µM | Malme-3M 97.5 µM | NCI-H226 54.7 µM | NCI-H23 33.5 µM | NCI-H460 40.4 µM | NCI-H522 32.7 µM | OVCAR-3 42.8 µM | OVCAR-4 63.8 µM | OVCAR-5 34.2 µM | OVCAR-8 37.3 µM | RPMI-8226 36 µM | SF-268 37.2 µM | SF-295 35.2 µM | SF-539 44.1 µM | SK-MEL-28 83.6 µM | SK-MEL-2 > 100 µM | SK-OV-3 58.9 µM | SN12C 36.2 µM | SNB-19 57.9 µM | SNB-75 22.8 µM | SNB-78 63 µM | SW-620 80.5 µM | TK-10 60.5 µM | U-251 54 µM | UACC-257 31.8 µM | UACC-62 36.7 µM | UO-31 33.7 µM
43.3 µM: HCT-15

Cc1c(C)c(CC(=O)N2CC2)c(C)c(C)c1CC(=O)N1CC1
active: HL-60 0.705 µM | MOLT-4 0.441 µM | NCI-H460 0.337 µM | SR 0.33 µM
16.8 µM: HCT-15
inactive: 786-0 3.56 µM | A498 16 µM | A549 7.28 µM | ACHN 1.43 µM | BT-549 21.9 µM | CAKI-1 2.12 µM | CCRF-CEM 1.15 µM | COLO 205 14.7 µM | DLD-1 17.5 µM | DMS-114 11.5 µM | DMS-273 2.18 µM | DU-145 2.1 µM | EKVX 23.2 µM | HCC 2998 11.4 µM | HCT-116 9.02 µM | HOP-18 28.4 µM | HOP-62 5.21 µM | HOP-92 9.48 µM | HT-29 6.93 µM | Hs-578T 30.3 µM | IGROV-1 17.1 µM | K562 12.6 µM | KM-20L2 17.3 µM | KM12 17.1 µM | LOX IMVI 5.19 µM | LXFL 529 14.1 µM | M14 5.25 µM | M19-MEL 12.9 µM | MCF7 3.22 µM | MDA-MB-231 19.2 µM | MDA-MB-435 16 µM | MDA-N 13.8 µM | Malme-3M 12.1 µM | NCI-H226 15.5 µM | NCI-H23 2.77 µM | NCI-H522 9.02 µM | NCI/ADR-RES 11 µM | OVCAR-3 19.5 µM | OVCAR-4 19.1 µM | OVCAR-5 25.7 µM | OVCAR-8 10.2 µM | PC-3 16 µM | RPMI-8226 10.6 µM | RXF 393 3.61 µM | SF-268 2.41 µM | SF-295 3.4 µM | SF-539 3.52 µM | SK-MEL-28 17 µM | SK-MEL-2 16 µM | SK-MEL-5 > 10 µM | SK-OV-3 16.8 µM | SN12C 4.03 µM | SNB-19 10.6 µM | SNB-75 6.73 µM | SNB-78 13.7 µM | SW-620 14.5 µM | T47D 6.61 µM | TK-10 25.9 µM | U-251 5.56 µM | UACC-257 17.6 µM | UACC-62 3.33 µM | UO-31 13.5 µM

COc1ccc(/C=c2\sc3n(c2=O)CCN=3)cc1
> 100 µM: HCT-15
inactive: A549 > 100 µM | ACHN > 100 µM | CCRF-CEM 96.2 µM | DLD-1 > 100 µM | EKVX > 100 µM | HCC 2998 62.4 µM | HCT-116 > 100 µM | HL-60 69.3 µM | HOP-18 88.3 µM | HOP-62 > 100 µM | HOP-92 29.8 µM | HT-29 > 100 µM | K562 43.7 µM | KM-20L2 > 100 µM | KM12 > 100 µM | LOX IMVI 64.7 µM | LXFL 529 > 100 µM | M14 > 100 µM | M19-MEL > 100 µM | MOLT-4 68.5 µM | Malme-3M 39.1 µM | NCI-H23 > 100 µM | NCI-H460 > 100 µM | NCI-H522 84.5 µM | OVCAR-3 > 100 µM | OVCAR-4 > 100 µM | OVCAR-5 > 100 µM | OVCAR-8 > 100 µM | RXF 393 31.1 µM | SF-295 > 100 µM | SF-539 > 100 µM | SK-MEL-28 > 100 µM | SK-MEL-2 > 100 µM | SK-MEL-5 80 µM | SK-OV-3 > 100 µM | SN12C 75.7 µM | SNB-75 57.8 µM | SNB-78 > 100 µM | SR > 100 µM | SW-620 > 100 µM | TK-10 > 100 µM | U-251 > 100 µM | UACC-257 47.5 µM | UACC-62 > 100 µM | UO-31 > 100 µM

COc1cc([C@@H]2c3cc4c(c(O)c3C[C@H]3COC(=O)[C@@H]32)OCO4)cc(OC)c1O
inactive: OVCAR-5 29.2 µM | SNB-75 25.4 µM
active: 786-0 0.00596 µM | A498 < 0.02 µM | A549 < 0.02 µM | ACHN 0.00631 µM | CAKI-1 < 0.02 µM | COLO 205 0.0281 µM | DMS-114 < 0.02 µM | DMS-273 < 0.02 µM | EKVX 0.0351 µM | HCC 2998 0.0237 µM | HCT-116 0.0205 µM | HOP-18 < 0.02 µM | HOP-62 < 0.02 µM | HOP-92 < 0.02 µM | HT-29 0.577 µM | IGROV-1 0.0277 µM | K562 0.0243 µM | LXFL 529 0.00257 µM | M14 0.00278 µM | M19-MEL 0.237 µM | MCF7 0.0377 µM | Malme-3M 0.0266 µM | NCI-H226 < 0.02 µM | NCI-H23 0.0853 µM | NCI/ADR-RES 0.0231 µM | OVCAR-8 0.0249 µM | RPMI-8226 0.026 µM | RXF 393 0.233 µM | SF-268 < 0.02 µM | SF-295 < 0.02 µM | SK-MEL-2 0.027 µM | SK-MEL-5 < 0.02 µM | SN12C 0.033 µM | SNB-19 0.796 µM | SNB-78 < 0.02 µM | SR 0.00307 µM | SW-620 < 0.02 µM | TK-10 0.00762 µM | UACC-257 < 0.02 µM | UACC-62 < 0.02 µM | UO-31 < 0.02 µM
